The source of these data is patent US20210180080A1, “USE OF ALS MUTANT PROTEIN AND THE GENE THEREOF IN PLANT BREEDING BASED ON GENE EDITING TECHNOLOGY” (priority 2018, published 2021).

Holding throughout (type): in vivo
Assay [1] concerns wild-type rice Nanjing 9108. The experiment in a line: herbicide resistance identification by spraying rice seedlings, wild type. The following applies: investigated 14 days later. An excerpt: (§1) The homozygous mutant T1 individual plants identified in Examples 2 and 3 were propagated, and the seeds were harvested in the artificial climate room of Nanjing Jiangsu Academy of Agricultural Sciences, which were the T2 generation; the T2 generation was continued to be propagated to obtain T3 Generation seeds. After accelerating the germination of the harvested T3 seeds, they were sown at a density of 450 kg hm^−2. When the rice growed to two leaves and one heart, the field water was drained and imazethapyr (aqueous agent, purchased from Nanjing Aijin Agrochemical Co., Ltd.) was sprayed at 210, 700, and 1400 g(a.i.) hm^−2 concentrations, respectively, with the water as the control group. After spraying for 24 h, the water was rehydrated, and the resistance was investigated 14 days later.
(§2) After accelerating germination of the T3 generation seeds in Example 4, they were sown at a density of 450 kg hm^−2. When the rice growed to two leaves and one heart, water in the field water was drained and Bailongtong (aqueous agent, purchased from Nanjing Aijin Agrochemical Co., Ltd.) was sprayed at 240, 2400, 4800 g(ai) hm^−2 concentration with water as the control group. After spraying for 24 h, the water was rehydrated, and the resistance was investigated 14 days later.

Assay [2] relates to transgenic lines A1-A58 of rice Nanjing 9108. The experiment in a line: herbicide screening of T1 generation transgenic lines. The following applies: 210 g (a.i.) hm^−2, investigated after 14 days. The protocol:
The T0 generation plants were harvested as an individual plant, and the harvested seeds were germinated and sown at a density of 450 kg hm^−2. When the rice growed to two leaves and one heart, the water was drained from the field and imazethapyr (aqueous agent, purchased from Nanjing Aijin Agrochemical Co., Ltd.) was sprayed at 210 g (a.i.) hm^−2. Rehydrate after spraying for 24 h, and investigate resistance after 14 days. Plants with all withered or dead leaves were susceptibleness, while the healthy and viable plants were resistance. […] Therefore, the frequency of obtaining herbicide resistant strains in this study was 1.72%. According to reports, the mutation frequency of herbicide resistant rice lines obtained by chemical mutagenesis was 0.00003^˜0.006%.

The subject of assay [3] is Mutant A51 rice (ALS amino acid 628 glycine to tryptophan). The experiment in a line: herbicide resistance identification by spraying rice seedlings, mutant. As to conditions: investigated 14 days later.
From the text: as §1, §2

The mark [4] stands for this setting: 210 g(a.i.) hm^−2 sprayed at two leaves and one heart.
[5] abbreviates: 210 g(a.i.) hm^−2 sprayed at two leaves and one heart, listed as Imazethapyr.

In the case of `CCc1cnc(C2=NC(C)(C(C)C)C(=O)N2)c(C(=O)O)c1` (stereo not drawn) [imazethapyr], the “resistance (survival) of wild-type plants after spraying” value was “all died” in assay [1] (setting [4]); “appear to die in whole” in assay [1] (setting [5]); “all died” in assay [1] (700 g(a.i.) hm^−2 sprayed at two leaves and one heart); “all died” in assay [1] (1400 g(a.i.) hm^−2 sprayed at two leaves and one heart). In assay [2] (A51 line, T1 generation), the “resistance of A51 line plants after spraying” value was “survived and showed herbicide resistance”. Also, the “resistance of the other 57 lines after spraying” value in assay [2] (the other 57 of lines A1-A58, T1 generation) is “died”. The “resistance (survival) of mutant plants after spraying” value in assay [3] (setting [4]) is “could survive”; in assay [3] (setting [5]) it was “still grow and develop normally”; in assay [3] (240 g(ai) hm^−2 sprayed at two leaves and one heart), “survived”; in assay [3] (700 g(a.i.) hm^−2 sprayed at two leaves and one heart, T3 generation), “could survive”; in assay [3] (1400 g(a.i.) hm^−2 sprayed at two leaves and one heart, T3 generation) it was “could survive”; in assay [3] (2400 g(ai) hm^−2 sprayed at two leaves and one heart, T3 generation) it was “survived”.
